Assay results reported in patent US12661410B2, “Compounds for targeted degradation of RET” (C4 Therapeutics, Inc., priority 2020, dated 2026).
Changes are numbered by the printed parent chain. Where two headings read alike, the source gives them in different places.

How the values were obtained:
RET (658-1114) = molecular target: T1, RET (658-1114) (Homo sapiens, UniProt P07949); experiment: HiBiT-Degradation, RET wild-type degradation assay (Nano-Glo HiBiT Lytic), 293T.144 cells; assay type: cell-based; conditions: HiBiT-Degradation; for DC50 / Emax: 6.0 hours; for DC50: read-out: 293T.144 RET (658-1114) 6.0 hours (DC50); for Emax: read-out: 293T.144 RET (658-1114) 6.0 hours (Emax)
T1 construct: 658-1114; expressed in transfected cells; host or cells: 293T.144 (293T cells, generated in-house)
T1 sequence (P07949 658-1114): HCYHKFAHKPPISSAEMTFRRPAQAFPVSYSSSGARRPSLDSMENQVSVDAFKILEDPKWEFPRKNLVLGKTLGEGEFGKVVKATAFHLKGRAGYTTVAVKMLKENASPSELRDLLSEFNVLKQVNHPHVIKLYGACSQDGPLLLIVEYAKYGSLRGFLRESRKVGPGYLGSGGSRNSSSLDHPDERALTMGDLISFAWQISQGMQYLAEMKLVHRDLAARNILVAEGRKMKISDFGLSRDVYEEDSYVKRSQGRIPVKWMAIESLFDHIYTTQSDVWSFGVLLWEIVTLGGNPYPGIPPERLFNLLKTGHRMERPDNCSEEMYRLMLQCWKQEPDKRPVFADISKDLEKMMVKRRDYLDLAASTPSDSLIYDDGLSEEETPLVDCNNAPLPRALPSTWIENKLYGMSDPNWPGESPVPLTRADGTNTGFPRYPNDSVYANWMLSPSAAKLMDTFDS
Method in brief: (§1)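 HEK293T lines expressing HiBiT-tagged RET kinase domain, wild-type (293T.144) or G810R (293T.165), treated 6 h in duplicate, 11-point half-log series from 10 μM top. Lytic HiBiT luminescence read; DC50 and Emax (% protein remaining) from dose-response curves.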

RET(KD: 658-1114 G810R) = molecular target: T2, RET(KD: 658-1114 G810R) (Homo sapiens, UniProt P07949, G810R); experiment: HiBiT-Degradation, RET G810R degradation assay (Nano-Glo HiBiT Lytic), 293T.165 cells; assay type: cell-based; conditions: for Emax / DC50: 6.0 hours; for Emax: % remaining protein, read-out: 293T.165 RET(KD: 658-1114 G810R) 6.0 hours (Emax); for DC50: read-out: 293T.165 RET(KD: 658-1114 G810R) 6.0 hours (DC50)
T2 construct: 658-1114; expressed in transfected cells; host or cells: 293T.165 (293T cells, generated in-house)
T2 sequence (P07949 658-1114 G810R): T1 sequence (P07949 658-1114) with G153R
Method in brief: as §1

[1] = half-maximal degradation concentration

Row | 293T.144 RET (658-1114) 6.0 hours (IP) [nM] (RET (658-1114)) | DC50 (RET (658-1114)) [µM] | Emax (RET (658-1114)) [%] | Emax (RET(KD: 658-1114 G810R)) [%] | DC50 (RET(KD: 658-1114 G810R); [1]) [µM] | 293T.165 RET(KD: 658-1114 G810R) 6.0 hours (Emax) (RET(KD: 658-1114 G810R); HiBiT-Degradation) | 293T.165 RET(KD: 658-1114 G810R) 6.0 hours (IP) [nM] (RET(KD: 658-1114 G810R); HiBiT-Degradation) | DC50 (RET(KD: 658-1114 G810R); HiBiT-Degradation) [µM] | Compound
1 | ++++ (< 50 nM = ++++) | < 0.05 | < 30 | < 30 | < 0.1 | ++++ (< 30% = ++++) | ++++ (< 50 nM = ++++) | < 0.1 | CC(C)NC(=O)C1(C)CCN(c2ccc(-c3cc(-c4ccc(N5CCN(C(=O)CN6CCC(c7ccc(NC8CCC(=O)NC8=O)cc7F)CC6)CC5)cc4)cn4ncc(C#N)c34)cn2)CC1 (stereo not shown) [Compound 45, 1-[5-[3-cyano-6-[4-[4-[2-[4-[4-[(2,6-dioxo-3-piperidyl)amino]-2-fluoro-phenyl]-1-piperidyl]acetyl]piperazin-1-yl]phenyl]pyrazolo[1,5-a]pyridin-4-yl]-2-pyridyl]-N-isopropyl-4-methyl-piperidine-4-carboxamide]
2 | ++++ (< 50 nM = ++++) | < 0.05 | < 30 | < 50 | < 0.1 | +++ (<50% = +++) | ++++ (< 50 nM = ++++) | < 0.1 | N#Cc1cnn2cc(-c3cnn(C4CCN(C(=O)CN5CCC(c6ccc(NC7CCC(=O)NC7=O)cc6F)CC5)CC4)c3)cc(-c3ccc(N4CCC(Nc5ccccc5)CC4)nc3)c12 (stereo not shown) [Compound 46, 4-[6-(4-anilino-1-piperidyl)-3-pyridyl]-6-[1-[1-[2-[4-[4-[(2,6-dioxo-3-piperidyl)amino]-2-fluoro-phenyl]-1-piperidyl]acetyl]-4-piperidyl]pyrazol-4-yl]pyrazolo[1,5-a]pyridine-3-carbonitrile]
3 | ++++ (< 50 nM = ++++) | < 0.05 | < 30 | < 30 | < 0.1 | ++++ (< 30% = ++++) | ++++ (< 50 nM = ++++) | < 0.1 | CC(C)NC(=O)C1(C)CCN(c2ccc(-c3cc(-c4ccc(N5CCN(C(=O)CN6CCC(c7ccc(OC8CCC(=O)NC8=O)cc7)CC6)CC5)cc4)cn4ncc(C#N)c34)cn2)CC1 (stereo not shown) [Compound 48, 1-[5-[3-cyano-6-[4-[4-[2-[4-[4-[(2,6-dioxo-3-piperidyl)oxy]phenyl]-1-piperidyl]acetyl]piperazin-1-yl]phenyl]pyrazolo[1,5-a]pyridin-4-yl]-2-pyridyl]-N-isopropyl-4-methyl-piperidine-4-carboxamide]
4 | ++++ (< 50 nM = ++++) | < 0.05 | < 30 | < 50 | < 0.1 | +++ (<50% = +++) | ++++ (< 50 nM = ++++) | < 0.1 | N#Cc1cnn2cc(-c3ccc(N4CCN(C(=O)CC5(O)CCN(c6ccc(NC7CCC(=O)NC7=O)cc6)CC5)CC4)cc3)cc(-c3ccc(N4CCN(C(=O)Cc5ccc(F)cn5)CC4)nc3)c12 (stereo not shown) [Compound 49, 6-[4-[4-[2-[1-[4-[(2,6-dioxo-3-piperidyl)amino]phenyl]-4-hydroxy-4-piperidyl]acetyl]piperazin-1-yl]phenyl]-4-[6-[4-[2-(5-fluoro-2-pyridyl)acetyl]piperazin-1-yl]-3-pyridyl]pyrazolo[1,5-a]pyridine-3-carbonitrile]
5 | ++++ (< 50 nM = ++++) | < 0.05 | < 30 | < 30 | < 0.1 | ++++ (< 30% = ++++) | ++++ (< 50 nM = ++++) | < 0.1 | CC(C)NC(=O)C1(C)CCN(c2ccc(-c3cc(-c4ccc(N5CCN(C(=O)CN6CCC(c7ccc(NC8CCC(=O)NC8=O)cc7F)CC6)CC5)cc4)cn4ncc(C#N)c34)cc2)CC1 (stereo not shown) [Compound 50, 1-[4-[3-cyano-6-[4-[4-[2-[4-[4-[(2,6-dioxo-3-piperidyl)amino]-2-fluoro-phenyl]-1-piperidyl]acetyl]piperazin-1-yl]phenyl]pyrazolo[1,5-a]pyridin-4-yl]phenyl]-N-isopropyl-4-methyl-piperidine-4-carboxamide]
